The values that follow come from EP0011663A1, “Toilet and dental preparations and their use for oral and dental hygiene” (UNILEVER PLC, priority 1978, dated 1980).

Data set [1] has as its system in vitro plaque. The experiment in a line: in vitro artificial plaque assay, treatment on the third day eliminated (Test 2). The conditions noted are these: no treatment on third day. The class given is cell-based. As for the experimental part: An in vitro test was used in the Tests described herein for examining and effects of chemotherapeutic agents on plaque, and was carried out in accordance with the test reported in the Journal of Dental Research, Vol. 55, February 1976, page B286, by R T Evans, P J Baker, R A Coburn and R J Genco. An assay system for producing artificial plaque was used to screen antiplaque agents rapidly under conditions which simulated those found in the oral cavity. […] The assay gives reproducible, quantitative results and has the ability to distinguish between antibacterial agents which are clinically effective or non-effective as plaquae inhibitors. The in vitro plaque was formed at 37°C on uniformly- sized aluminium plummets which were first coated with saliva. The plummets were then placed in a growth medium inoculated with clinical plaque samples. After seven hours the plummets were suspended overnight in a 25;0 saliva mixture. On the second day, the plummets were immersed in a 50% saliva - 50% test compound mixture for one minute, placed in the growth medium for seven hours, retreated with the test mixture and suspended in 25% saliva overnight. The plummets were treated again on the third day and incubated in the growth medium for three hcurs. The plaques were removed from the plummets by donication into approximately six millilitres of buffer and quantitated by optical density (O.D.) in a Beckman DU spectrophotometer at 570 nm. […] Positive controls were included to determine relative activity. Comparisons of antiplaque activity were then made within a given experiment. At least five replicas per compound were examined. To test higher levels of tetradecylamine, the artificial plaque treatment previously described is eliminated on the third day to simulate infrequent use of the antiplaque products.

The subject of data set [2] is in vitro plaque. The experiment in a line: in vitro artificial plaque assay on saliva-coated aluminium plummets (Tests 1, 3, 4 and general statements). In kind it is cell-based. The conditions noted are these: for minimum amount of the metal compound necessary to result in control of plaque: at the site of formation of the plaque, under the conditions of the tests. As for the experimental part: An in vitro test was used in the Tests described herein for examining and effects of chemotherapeutic agents on plaque, and was carried out in accordance with the test reported in the Journal of Dental Research, Vol. 55, February 1976, page B286, by R T Evans, P J Baker, R A Coburn and R J Genco. An assay system for producing artificial plaque was used to screen antiplaque agents rapidly under conditions which simulated those found in the oral cavity.
The in vitro plaque was formed at 37°C on uniformly- sized aluminium plummets which were first coated with saliva. The plummets were then placed in a growth medium inoculated with clinical plaque samples. After seven hours the plummets were suspended overnight in a 25;0 saliva mixture. On the second day, the plummets were immersed in a 50% saliva - 50% test compound mixture for one minute, placed in the growth medium for seven hours, retreated with the test mixture and suspended in 25% saliva overnight. The plummets were treated again on the third day and incubated in the growth medium for three hcurs. The plaques were removed from the plummets by donication into approximately six millilitres of buffer and quantitated by optical density (O.D.) in a Beckman DU spectrophotometer at 570 nm.
Positive controls were included to determine relative activity. Comparisons of antiplaque activity were then made within a given experiment. At least five replicas per compound were examined.
The experiments are conducted in the same manner, in a 15% ethanol/water media at pH 5.
The effects of 0.060% tetradecylamine (TDA) 0.05 SnCl4, and the combination of SnCl and TDA at these concentrations are examined by the artificial plaque method previously described, all with 15% ethanol, at pH 2.6.

A short description of data set [3]: critical micellar concentration (CMC). In kind it is physicochemical.
Data set [4] relates to rats. The conditions noted are these: orally in rats; Seventh Issue of the Merck Index; cited from earlier work.
Data set [5] has as its system plaque. The conditions noted are these: clinical data, zinc salt alone; cited from earlier work.
The mark [6] stands for this setting: metal salt alone 0.10 % Wt./Vol., 15% ethanol/water, pH 5.
The mark [7] stands for this setting: amine in place of tetradecylamine, in combination with metal compounds (zinc or aluminium).
[8] abbreviates: addition of CO2 to tetradecylamine.
The mark [9] stands for this setting: cation or anion as such, by the in vitro assay.

Entries after “also recorded” stand apart in the source; their conditions may differ. Read-outs that look alike come from different tables or passages of the source. Marks after values point to notes of the source that are not given here.

In the case of `O.O.O.O.O.O.[Al+3].[Cl-].[Cl-].[Cl-]` [AlCl3.6H2O], the “Average Optical Density” value in data set [1] (AlCl3.6H2O 1.00 % Wt/Vol) is given as 1.218; in data set [1] (AlCl3.6H2O .250 % Wt/Vol) it was 1.080. The “% Reduction” value in data set [1] (AlCl3.6H2O 1.00 % Wt/Vol, negative = weight gain) is -9.4* %; in data set [1] (AlCl3.6H2O .250 % Wt/Vol, vs H2O control) it was 3.0%.
Regarding `CCCCCCCCCCCCCCCC[n+]1ccccc1` [CPC, cetyl pyridinium chloride, reference compound], the “Average Optical Density” value in data set [2] (pH 4.1) is on record as “.515”.
Consider `O.O.O.O.O.O.[Cl-].[Cl-].[Co+2]` [CoCl2.6H2O, reference compound], for which the “% Reduction” value in data set [2] (setting [6]) is -25%.
With `O.O.O.O=[N+]([O-])[O-].O=[N+]([O-])[O-].[Cu+2]` [Cu(NO3)2.3H2O, reference compound], in data set [2] (setting [6]), the “% Reduction” value is -10%.
With `CCCCCCCCCCCCN` [Dodecylamine, reference compound], the synergistic plaque reductions entry is “do not give synergistic plaque reductions” in data set [2] (setting [7]) and “not found” in data set [2] (amine in place of tetradecylamine, in combination with metal compounds (zinc or aluminium), listed as dodecylamine).
Take `O.O.O.O.O.O.[Cl-].[Cl-].[Cl-].[Fe+3]` [FeCl3.6H2O, reference compound]: in data set [2] (setting [6]), the “% Reduction” value is recorded as -38%.
For `CCCCCCCCCCCCCCCCCCN(C)C` [N,N'-dimethyl-octadecylamine, reference compound], the synergistic plaque reductions entry in data set [2] (setting [7]) is recorded as “do not give synergistic plaque reductions”.
On to `O.O.O.O.O.O.[Cl][Ni][Cl]` [NiCl2.6H2O, reference compound], for which, in data set [2] (setting [6]), the “% Reduction” value is -17%.
As for `O.O.O.O.O.[Cl][Sn]([Cl])([Cl])[Cl]` [SnCl4.5H2O, reference compound], in data set [2] (SnCl4.5H2O 0.05 % Wt/Vol., 15% ethanol, pH 2.6, negative = weight gain), the “% Reduction” value is -8* %.
In the case of `CCCCCCCCCCCCCCN` [TDA, tetradecylamine, reference compound], the inhibition at 0.06 % in data set [2] (TDA 0.06 % Wt./Vol., 15% ethanol/water, pH 5, read-out: % Reduction) stood at 19%; in data set [2] (TDA 0.06 % Wt/Vol., 15% ethanol, pH 2.6, read-out: % Reduction), 19%; in data set [2] (TDA .060 % Wt/Vol, 15% ethanol, pH 4.1, vs H2O control, read-out: % Reduction), 18.8%; in data set [2] (dose-response curve, tetradecylamine 0.060%, no metal present, read-out: plaque reduction), 18%. Moreover, the “Average Optical Density” value in data set [2] (TDA .060 % Wt/Vol, 15% ethanol, pH 4.1, O.D. at 570 nm) is “.571”; in data set [1] (TDA .120 % Wt/Vol), “.882”. Moreover, the antiplaque activity entry in data set [2] (setting [8]) is listed as “increased”. Moreover, in data set [2] (dose-response curve, tetradecylamine 0.20%, no metal present, read-out: plaque reduction), the inhibition at 0.2 % stood at 44%. Further, in data set [3] (setting [8]), the CMC entry was “lowering”. Also, the “critical micellar concentration (CMC)” value in data set [3] (in combination with selected metals) is reported as “lowered”. Also, the inhibition at 0.12 % in data set [1] (TDA .120 % Wt/Vol, vs H2O control, read-out: % Reduction) amounted to 20.7%.
For the compound `[Cl-].[Cl-].[Zn+2]` [ZnCl2, reference compound], the “Average Optical Density” value in data set [2] (ZnCl2 .30 % Wt/Vol, 15% ethanol, pH 4.1, O.D. at 570 nm) is “.766”. The “% Reduction” value in data set [2] (ZnCl2 .30 % Wt/Vol, 15% ethanol, pH 4.1, vs H2O control, negative = weight gain) was -8.0* %.
For `[Al]` [aluminium], in data set [4], the LD50 was 3-4 g/kg body weight. Also, in data set [2], the “minimum amount of the metal compound necessary to result in control of plaque” value (from here on “minimum amount”) is reported as “about 0.001 molar”.
`[Ca+2]` [calcium]: the synergistic plaque reductions result in data set [2] is on record as “have not been found to give synergistic plaque reductions; also recorded: did not give synergistic plaque reductions”.
Regarding `Cl` [chloride], the synergistic plaque reductions entry in data set [2] (setting [9]) is given as “synergism has not been found; also recorded: synergism was not found”.
As for `[Co]` [cobalt], the LD50 in data set [4] was 0.3-0.9 g/kg body weight. Further, the “minimum amount” value in data set [2] is roughly 500 µM.
As for `[Cu]` [copper], the LD50 in data set [4] is reported as 0.3-0.9 g/kg body weight. The “minimum amount” value in data set [2] was roughly 500 µM.
Take `CCCCCCCCCCN` [decylamine, reference compound]: the synergistic plaque reductions result in data set [2] (setting [7]) is reported as “do not give synergistic plaque reductions”.
As to `CCCCCCCCCCCCN(C)C` [dimethyldodecylamine, reference compound], the synergistic plaque reductions entry in data set [2] (setting [7]) is recorded as “do not give synergistic plaque reductions”.
For the compound `F` [fluoride], the synergistic plaque reductions result in data set [2] is “synergism has not been found; also recorded: synergism was not found”.
Consider `CCCCCCCCCCCCCCCCN` [hexadecylamine, reference compound], for which the synergistic plaque reductions result in data set [2] (setting [7]) was “do not give synergistic plaque reductions; also recorded: not found”.
As for `[HH]` [hydrogen], the synergistic plaque reductions entry in data set [2] (setting [9]) is recorded as “have not been found to give synergistic plaque reductions; also recorded: did not give synergistic plaque reductions”.
Turning to `[Fe]` [iron], the LD50 in data set [4] is 0.3-0.9 g/kg body weight. Besides, the “minimum amount” value in data set [2] is roughly 500 µM.
As to `[Mg+2]` [magnesium], the synergistic plaque reductions result in data set [2] (setting [9]) was “have not been found to give synergistic plaque reductions; also recorded: did not give synergistic plaque reductions”.
Take `[Ni]` [nickel]: in data set [4], the LD50 was 0.3-0.9 g/kg body weight. Moreover, the “minimum amount” value in data set [2] was roughly 500 µM.
Consider `O=[N+]([O-])O` [nitrate], for which the synergistic plaque reductions result in data set [2] was “synergism has not been found; also recorded: synergism was not found”.
Regarding `[K+]` [potassium], in data set [2] (setting [9]), the synergistic plaque reductions entry is reported as “have not been found to give synergistic plaque reductions; also recorded: did not give synergistic plaque reductions”.
On to `[Na]` [sodium], for which the synergistic plaque reductions result in data set [2] (setting [9]) is on record as “have not been found to give synergistic plaque reductions; also recorded: did not give synergistic plaque reductions”.
On to `O=S(=O)(O)O` [sulphate], for which, in data set [2] (setting [9]), the synergistic plaque reductions result was “synergism has not been found; also recorded: synergism was not found”.
Turning to `[Sn]` [tin], in data set [4], the LD50 entry is given as “about 0.05 g/kg body weight”. In data set [2], the “minimum amount” value was roughly 500 µM.
In the case of `[O-][n+]1ccccc1[S-].[O-][n+]1ccccc1[S-].[Zn+2]` [zinc salt], in data set [5], the reduction in plaque entry was “about 5%”.
With `[Zn]` [zinc], the LD50 in data set [4] is 3-4 g/kg body weight. Besides, the “minimum amount” value in data set [2] is recorded as “about 0.001 molar”.
Take phosphate: the synergistic plaque reductions entry in data set [2] (setting [9]) was “synergism has not been found; also recorded: synergism was not found”.
